Data: patent EP0354323A2, “Antidiabetic phosphates” (AMERICAN CYANAMID COMPANY, priority 1988, dated 1990)
Where a name gives a salt, the structure may show the parent alone. Read-outs that look alike come from different tables or passages of the source.

Key:
Format in all cases: biochemical
[1] = target: T1, purified rat liver 6-phosphofructo-1-kinase (Rattus norvegicus, UniProt P30835); experiment: Stimulation of 6-phosphofructo-1-kinase (PFK), aldolase-coupled spectrophotometric assay; settings: stimulation of enzyme; pH 7.3, 30°C, 1 mM ATP, reaction initiated with 0.2 mM fructose-6-phosphate; read-out: PFK ED₅₀
T1 construct: 0.1U of purified rat liver 6-phosphofructo-1-kinase; from tissue; host or cells: rat liver
T1 sequence (P30835 2-780 limits assumed): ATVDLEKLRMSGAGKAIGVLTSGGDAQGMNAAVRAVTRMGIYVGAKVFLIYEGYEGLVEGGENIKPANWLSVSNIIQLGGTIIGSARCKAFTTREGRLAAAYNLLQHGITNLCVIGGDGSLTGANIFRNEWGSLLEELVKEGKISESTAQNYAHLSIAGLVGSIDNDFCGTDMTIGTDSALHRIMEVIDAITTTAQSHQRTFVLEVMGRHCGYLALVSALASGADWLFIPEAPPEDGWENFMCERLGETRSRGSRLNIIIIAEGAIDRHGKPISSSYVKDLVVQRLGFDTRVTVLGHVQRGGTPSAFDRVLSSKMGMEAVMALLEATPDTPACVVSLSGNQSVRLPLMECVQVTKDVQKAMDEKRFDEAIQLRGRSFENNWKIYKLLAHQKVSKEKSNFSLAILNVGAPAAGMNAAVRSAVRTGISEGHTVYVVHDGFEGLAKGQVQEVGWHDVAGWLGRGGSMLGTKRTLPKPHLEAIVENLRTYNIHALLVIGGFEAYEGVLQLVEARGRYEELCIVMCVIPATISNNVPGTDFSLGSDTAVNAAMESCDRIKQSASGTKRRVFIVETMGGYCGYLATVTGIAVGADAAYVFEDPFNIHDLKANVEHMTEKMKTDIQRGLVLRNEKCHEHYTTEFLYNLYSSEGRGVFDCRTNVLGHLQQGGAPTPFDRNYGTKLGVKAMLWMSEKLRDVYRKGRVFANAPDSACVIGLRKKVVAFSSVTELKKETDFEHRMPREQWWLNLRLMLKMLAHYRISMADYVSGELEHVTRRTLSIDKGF
Description: (§1) The novel compounds of this invention were tested for their ability to stimulate the enzyme 6-phosphofructo-1-kinase ("PFK") and for their ability to inhibit the enzyme fructose-1,6-bisphosphatase ("FBP") using the procedures described below.
Effects on the activity of PFK were determined using an aldolase-coupled, spectrophotometric assay. The assay mixture contained: 50 mM N-tris(hydroxymethyl)methyl-2-aminoethanesulfonic acid, hydrochloride ("TES-HCl", pH 7.3); 1mM ethylenediaminetetraacetic acid ("EDTA"); 6 mM magnesium chloride; 2.5 mM dithiothreitol; 0.165 mM nicotinamide adenine dinucleotide ("NADH"); 1mM adenosine triphosphate ("ATP"); 0.04U aldolase; 0.4U triose phosphate isomerase; 1.5U alpha-glycerolphosphate dehydrogenase; 0.1U of purified rat liver 6-phosphofructo-1-kinase; and various concentrations of the test compound, all in a final volume of 1 ml. The mixture was preincubated for 3 minutes at 30°C and then the reaction was initiated with 0.2 mM fructose-6-phosphate. The rate of decrease in absorbance at 340 nm was measured at 30°C with a recording spectrophotometer.

purified rat liver FBP = target: T2, purified rat liver FBP (Rattus norvegicus, UniProt P19112); experiment: Inhibition of fructose-1,6-bisphosphatase (FBP), spectrophotometric assay
T2 construct: 0.02U of purified rat liver FBP; from tissue; host or cells: rat liver
T2 sequence (P19112 2-363 limits assumed): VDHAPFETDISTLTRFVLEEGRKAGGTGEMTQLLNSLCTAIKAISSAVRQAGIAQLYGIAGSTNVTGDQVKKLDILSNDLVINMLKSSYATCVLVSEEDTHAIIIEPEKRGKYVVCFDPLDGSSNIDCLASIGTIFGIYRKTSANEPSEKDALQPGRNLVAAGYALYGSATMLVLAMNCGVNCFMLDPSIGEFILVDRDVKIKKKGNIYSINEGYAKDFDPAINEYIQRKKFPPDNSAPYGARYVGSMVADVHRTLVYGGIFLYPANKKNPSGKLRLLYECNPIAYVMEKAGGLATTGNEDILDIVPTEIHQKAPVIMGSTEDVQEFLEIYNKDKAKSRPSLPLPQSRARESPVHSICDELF
Description: as §1
Effects on the activity of FBP were determined using a spectrophotometric assay. The assay mixture contained: 100 mM tris(hydroxymethyl)aminomethane, hydrochloride ("TRIS-HCl", pH 7.4); 2.5 mM beta-mercaptoethanol; 2 mM magnesium chloride; 0.05 mM EDTA; 0.2 mM nicotinamide adenine dinucleotide phosphate ("NADP"); 10 U phosphoglucose isomerase; 5 U glucose-6-phosphate dehydrogenase; 0.02U of purified rat liver FBP; and various concentrations of the test compound, all in a final volume of 1 ml. The mixture was preincubated for 3 minutes at 30°C and then the reaction was initiated with 0.02 mM fructose-1,6-bisphosphate. The rate of increase in absorbance at 340 nm was measured at 30°C with a recording spectrophotometer.

[2] = target: T3, partially purified potato tuber 6-phosphofructo-1-kinase (Solanum tuberosum, UniProt P21342+P21343); experiment: Stimulation of pyrophosphate-dependent 6-phosphofructo-1-kinase (PPi-PFK), aldolase-coupled spectrophotometric assay; settings: stimulation of enzyme; pH 8.0, 30°C, 1 mM fructose-6-phosphate, reaction initiated with 0.5 mM sodium pyrophosphate; read-out: PPi-PFK ED₅₀
T3 construct: 0.1U of partially purified potato tuber; from tissue; host or cells: potato tuber
T3 sequence (P21343 1-569): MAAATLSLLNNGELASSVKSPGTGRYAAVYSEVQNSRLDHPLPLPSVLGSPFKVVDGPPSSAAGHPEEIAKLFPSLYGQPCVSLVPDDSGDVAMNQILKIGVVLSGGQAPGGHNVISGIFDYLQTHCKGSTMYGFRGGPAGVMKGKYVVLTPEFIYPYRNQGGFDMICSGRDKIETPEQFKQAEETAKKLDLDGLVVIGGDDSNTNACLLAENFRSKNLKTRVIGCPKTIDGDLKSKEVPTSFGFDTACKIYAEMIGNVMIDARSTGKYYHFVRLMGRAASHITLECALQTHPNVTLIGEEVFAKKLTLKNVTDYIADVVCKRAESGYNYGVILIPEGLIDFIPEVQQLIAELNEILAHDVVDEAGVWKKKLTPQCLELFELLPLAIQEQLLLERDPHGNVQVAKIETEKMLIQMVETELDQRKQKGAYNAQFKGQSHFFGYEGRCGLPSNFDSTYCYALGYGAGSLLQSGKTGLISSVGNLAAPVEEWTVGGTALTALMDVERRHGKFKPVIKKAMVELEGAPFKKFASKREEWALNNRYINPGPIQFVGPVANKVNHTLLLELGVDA
T3 sequence (P21342 1-616): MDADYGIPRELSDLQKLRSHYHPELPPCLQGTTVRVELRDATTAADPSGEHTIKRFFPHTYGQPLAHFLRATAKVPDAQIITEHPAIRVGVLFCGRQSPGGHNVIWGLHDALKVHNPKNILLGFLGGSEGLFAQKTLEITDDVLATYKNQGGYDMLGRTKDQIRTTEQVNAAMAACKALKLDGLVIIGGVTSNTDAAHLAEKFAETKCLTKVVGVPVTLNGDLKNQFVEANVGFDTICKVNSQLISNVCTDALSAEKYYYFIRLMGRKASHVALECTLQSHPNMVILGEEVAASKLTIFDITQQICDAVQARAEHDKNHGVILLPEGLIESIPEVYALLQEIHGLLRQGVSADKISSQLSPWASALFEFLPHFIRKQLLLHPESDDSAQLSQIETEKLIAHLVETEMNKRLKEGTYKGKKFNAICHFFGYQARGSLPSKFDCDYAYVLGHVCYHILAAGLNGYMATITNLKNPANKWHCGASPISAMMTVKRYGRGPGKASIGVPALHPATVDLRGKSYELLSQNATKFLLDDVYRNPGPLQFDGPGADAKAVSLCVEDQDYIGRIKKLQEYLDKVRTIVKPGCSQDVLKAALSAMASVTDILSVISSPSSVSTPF
Description: The novel compounds of this invention were also tested for their ability to stimulate the enzyme pyrophosphate-dependent 6-phosphofructo-1-kinase ("PPi-PFK"), a growth regulator in plants, using the procedures described below.
Effects on the activity of PPi-PFK were determined using an aldolase-coupled, spectrophotometric assay. The assay mixture contained: 50 mM N-tris(hydroxymethyl)methyl-2-aminoethanesulfonic acid, hydrochloride ("TES-HCl", pH 8.0); 1mM ethylenediaminetetraacetic acid ("EDTA"); 6 mM magnesium chloride; 2.5 mM dithiothreitol; 0.165 mM nicotinamide adenine dinucleotide ("NADH"); 1mM fructose-6-phosphate; 0.04U aldolase; 0.4U triose phosphate isomerase; 1.5U alpha-glycerolphosphate dehydrogenase; 0.1U of partially purified potato tuber 6-phosphofructo-1-kinase; and various concentrations of the test compound, all in a final volume of 1 ml. The mixture was preincubated for 3 minutes at 30°C and then the reaction was initiated with 0.5 mM sodium pyrophosphate. The rate of decrease in absorbance at 340 nm was measured at 30°C with a recording spectrophotometer.

[3] = inhibition of enzyme, pH 7.4, 30°C, reaction initiated with 0.02 mM fructose-1,6-bisphosphate, read-out: FBP IC₅₀

EC50 [1] | IC50 (purified rat liver FBP; [3]) | EC50 [2] | Compound | IC50 (purified rat liver FBP)
4 µM | 230 µM | – | O=P(O)(O)OCC[C@@H]1O[C@H](COP(=O)(O)O)[C@@H](O)[C@@H]1O [3,6-Anhydro-2-deoxy-D-gluco-heptitol, 1,7-bis(dihydrogen phosphate)] | –
300 µM | 450 µM | 1000 µM | O=P(O)(O)OC[C@H]1OC(O)(C(F)F)[C@@H](O)[C@@H]1O (stereo partly drawn) [1-Deoxy-1,1-difluoro-D-fructofuranose, 6-(dihydrogen phosphate), sodium salt] | –
2 µM | – | 6.6 µM | O=P(O)(O)OC[C@H]1O[C@](CO)(COP(=O)(O)O)[C@@H](O)[C@@H]1O [2,5-Anhydro-2-C-[(phosphonooxy)methyl]-D-glucitol, 6-(dihydrogen phosphate)] | –
– | – | 0.3 µM | O=P(O)(O)OC[C@H]1O[C@](OP(=O)(O)O)(C(F)F)[C@@H](O)[C@@H]1O [1-Deoxy-1,1-difluoro-D-fructofuranose, 2,6-bis(dihydrogen phosphate), β-anomer, tetrasodium salt] | –
0.15 µM | > 800 µM | – | O=P(O)(O)OC[C@H]1O[C@](OP(=O)(O)O)(C(F)F)[C@@H](O)[C@@H]1O [1-Deoxy-1,1-difluoro-D-fructofuranose, 2,6-bis (dihydrogen phosphate), β-anomer, disodium salt] | –
12 µM | – | – | O=P(O)(O)OCCCC1O[C@H](COP(=O)(O)O)[C@@H](O)[C@@H]1O (stereo partly drawn) [4,7-Anhydro-2,3-dideoxy-D-gluco-octitol, 1,8-bis(dihydrogen phosphate), and 4,7-Anhydro-2,3-dideoxy-D-manno-octitol, 1,8-bis(dihydrogen phosphate)] | –
– | – | 15 µM | O=P(O)(O)OC[C@H]1O[C@@](OP(=O)(O)O)(C(F)F)[C@@H](O)[C@@H]1O [1-Deoxy-1,1-difluoro-D-fructofuranose, 2,6-bis(dihydrogen phosphate), α-anomer, tetrasodium salt] | –
0.56 µM | 50 µM | – | O=P(O)(O)OCC[C@H]1O[C@H](COP(=O)(O)O)[C@@H](O)[C@@H]1O [3,6-Anhydro-2-deoxy-D-manno-heptitol, 1,7-bis(dihydrogen phosphate)] | –
0.02 µM | 3 µM | 0.004 µM | O=P(O)(O)OC[C@H]1O[C@@](CO)(OP(=O)(O)O)[C@@H](O)[C@@H]1O [Beta-D-fructose-2,6-bisphosphate, reference compound] | –
0.05 µM | > 800 µM | – | O=P(O)(O)OC[C@H]1O[C@@](OP(=O)(O)O)(C(F)F)[C@@H](O)[C@@H]1O [1-Deoxy-1,1-difluoro-D-fructofuranose, 2,6-bis(dihydrogen phosphate), α-anomer, disodium salt] | –
2.2 µM | 32 µM | – | O=P(O)(O)OC[C@@H]1O[C@H](COP(=O)(O)O)[C@@H](O)[C@@H]1O [2,5-Anhydro-D-glucitol, 1,6-bis(dihydrogen phosphate)] | –
7.2 µM | 100 µM | – | O=P(O)(O)OCC[C@@]1(CO)O[C@H](COP(=O)(O)O)[C@@H](O)[C@@H]1O [3,6-Anhydro-2-deoxy-3-C-(hydroxymethyl)-D-manno-hepitol, 1,7-bis(dihydrogen phosphate)] | –
2.1 µM | – | – | O=P(O)(O)OC[C@@H](O)[C@H]1O[C@H](COP(=O)(O)O)[C@@H](O)[C@@H]1O [2,5-Anhydro-D-glycero-D-manno-heptitol, 1,7-bis(dihydrogen phosphate)] | –
6.3 µM | – | 0.4 µM | O=P(O)(O)OC[C@H]1O[C@@](CO)(COP(=O)(O)O)[C@@H](O)[C@@H]1O [2,5-Anhydro-2-C-(hydroxymethyl)-D-glucitol, 1,6-bis(dihydrogen phosphate)] | –

Compound | EC50 [1] | IC50 (purified rat liver FBP; [3]) | EC50 [2] | IC50 (purified rat liver FBP)
O=P(O)(O)OC[C@H]1O[C@H](COP(=O)(O)O)[C@@H](O)[C@@H]1O [2,5-Anhydro-D-mannitol, 1,6-bis(dihydrogen phosphate)] | 0.26 µM | – | – | 2 µM
